In patent publication US9345667B2, “Particles having hydrophobic material therein” (Australian Nuclear Science and Technology Organisation, priority 2005, dated 2016):
Values after ≈ are worked out from the molar mass of the structure shown.

Experiments:
[1] = cited from earlier work
[2] = UV/Vis of retinol during release from retinol-doped silica particles; assay type: physicochemical; settings: release in anhydrous ethanol
[3] = Release of SB-35 dye from silica microparticles (UV/Vis); assay type: physicochemical; settings: in cyclohexane, compared with dodecane
Experimental: 1. The encapsulation efficiency and release rate of the hydrophobic dye were determined by UV/Vis spectroscopy (Cary 50). The encapsulation efficiency was estimated by two methods. The first one was an indirect measurement, which consisted of measuring the U/Vis absorbance of the cyclohexane/Span 80 solutions after the silica particles had been filtered out. The encapsulation efficiency of the dye was calculated by subtracting the dye measured in the outer oil phase from the original dye concentration introduced into the system. A standard calibration curve was generated by adding accurate amounts of dye into the outer oil phase, with identical composition and concentration as the one used for the preparation of the corresponding samples. The second “direct” method consisted of measuring the release of SB-35 from the silica particles in a solvent such as ethanol, cyclohexane or dodecane, until the absorbance was stable. A standard calibration curve was produced by using the identical composition and concentration as the sample release media. (The surfactant content was estimated by the TGA/DTA result). The absorbance was measured at different intervals of time while stirring the product to produce the dye release curve.
The faster release rate observed in the case of the cyclohexane may be explained by the higher lipophilicity of the cyclohexane. […]

SMILES: CN(C)C(=O)Nc1ccc(Cl)c(Cl)c1 [diuron, 3-(3,4-Dichlorophenyl)-1,1-dimethylurea]
- solubility in methanol [1]: 43 mg/mL (≈ 184 mM)

SMILES: CC1=C(/C=C/C(C)=C/C=C/C(C)=C/CO)C(C)(C)CCC1 [retinol]
- retinol UV/Vis band during release [2]: disappeared

SMILES: CCCCNc1ccc(NCCCC)c2c1C(=O)c1ccccc1C2=O [SB-35, Solvent Blue 35]
- release rate of SB-35 from silica microparticles [3]: faster than in dodecane
